According to US7728146B2, “Enzyme inhibitors” (Probiodrug AG, priority 2006, dated 2010):

Biological target: DP IV (Homo sapiens, UniProt P27487)
Assay: DP IV inhibition IC50, parallel-synthesis compounds tested directly following synthesis (without purification)
Assay type: biochemical
Parameters: IC50 DP4; other: tested directly following parallel synthesis, without purification; compounds of formula (Ib) from parallel synthesis, tested directly following synthesis
Settings: DP IV inhibition; compounds of formula (Ib) from parallel synthesis, tested directly following synthesis (without purification); read-out: IC50
Method: Compounds were immediately tested regarding their activity as DP IV inhibitors.
Substances are screened for inhibition of dipeptidyl peptidase (DP IV) by their ability to inhibit the hydrolysis of the DP IV specific substrate Glycyl-Prolyl-4-Nitroanilide (Gly-Pro-pNA). All compounds are diluted in DMSO and IC50 will be determined with 11 serial dilutions (1:2) starting with an final concentration of 100 μM. The final DMSO concentration in the assay is 5% (v/v). The method was automated using a Tecan Genesis Freedom liquid handler and a Genius Pro (Tecan) microplate reader.
DP IV from porcine kidney (pDP IV) or recombinant human DP IV (rhDP IV) is diluted in HEPES buffer to a final activity of approximately 40-50 μU*ml^−1. The DP IV is stored in a cooling rack (4° C.) on the liquid handler.
The assay may becarried out at room temperature using Freedom liquid handler connected with a Genios Pro microplate reader. Each sample is measured in duplicate. Each sample stock solution is prediluted with DMSO in a ratio of 1:5 in a polypropylen 96-well plate. From this predilution 10 serial (1:2) dilutions in DMSO are prepared. 13.5 μl of the 11 DMSO dilutions and DMSO alone are transferred to the measurement microplate (duplicates) and 86.5 μl water, 100 μl HEPES buffer and 50 μl substrate solution are added to each well. The enzymatic reaction is started by addition of 20 μl enzyme solution to each well, and then the microplate is immediately transferred to the microplate reader.
After short mixing (20 s) the release of 4-Nitroanilin (pNA) is monitored at 405 nm for 30 cycles (approx. 18 min).
Post assay calculations are done by the Magellan (Tecan) and Graphit Software. The linear slopes are calculated for each well and averaged for the duplicates. The residue activities are calculated in relation to a sample containing only solvent instead of inhibitor and expressed in %. Residue activities are plotted against the log of inhibitor concentrations and IC50 is calculated by an 4-parameter fitting ranging from 0 to 100%.

Row | IC50 [µM] | Structure (SMILES)
1 | 40.6 | CCCCCCn1cnc(-c2ccc(Cl)cc2Cl)c1C(C)N (stereo not drawn) [61b, 1-[5-(2,4-Dichloro-phenyl)-3-hexyl-3H-imidazol-4-yl]-ethylamine]
2 | 10 | COc1ccc(Cn2cnc(-c3ccc(Cl)cc3Cl)c2[C@H](C)N)c(OC)c1 [62b, (S)-1-[5-(2,4-Dichloro-phenyl)-3-(2,4-dimethoxy-benzyl)-3H-imidazol-4-yl]-ethylamine]
3 | 19 | CC(N)c1c(-c2ccc(Cl)cc2Cl)ncn1CCc1ccccc1Cl (stereo not drawn) [63b, 1-[3-[2-(2-Chloro-phenyl)-ethyl]-5-(2,4-dichloro-phenyl)-3H-imidazol-4-yl]-ethylamine]
4 | 28.9 | CC(N)c1c(-c2ccc(Cl)cc2Cl)ncn1CCc1cccc(Cl)c1 (stereo not drawn) [64b, 1-[3-[2-(3-Chloro-phenyl)-ethyl]-5-(2,4-dichloro-phenyl)-3H-imidazol-4-yl]-ethylamine]
5 | 2.8 | NCc1c(-c2ccc(Cl)cc2Cl)ncn1CCC1=CCCCC1 [65b, C-[3-(2-Cyclohex-1-enyl-ethyl)-5-(2,4-dichloro-phenyl)-3H-imidazol-4-yl]-methylamine]
6 | 11.8 | Cc1ccc(Cn2cnc(-c3ccc(Cl)cc3Cl)c2CN)cc1 [66b, C-[5-(2,4-Dichloro-phenyl)-3-(4-methyl-benzyl)-3H-imidazol-4-yl]-methylamine]
7 | 28.9 | CC(N)c1c(-c2ccc(Cl)cc2Cl)ncn1Cc1ccccc1Cl (stereo not drawn) [67b, 1-[3-(2-Chloro-benzyl)-5-(2,4-dichloro-phenyl)-3H-imidazol-4-yl]-ethylamine]
8 | 26.2 | CC(N)c1c(-c2ccc(Cl)cc2Cl)ncn1Cc1ccc(F)c(F)c1 (stereo not drawn) [68b, 1-[5-(2,4-Dichloro-phenyl)-3-(3,4-difluoro-benzyl)-3H-imidazol-4-yl]-ethylamine]
9 | 19 | CCNCCn1cnc(-c2ccc(Cl)cc2Cl)c1CN [69b, {2-[5-Aminomethyl-4-(2,4-dichloro-phenyl)-imidazol-1-yl]-ethyl}-ethyl-amine]
10 | 41.5 | CC(N)c1c(-c2ccc(Cl)cc2Cl)ncn1CCCc1ccccc1 (stereo not drawn) [70b, 1-[5-(2,4-Dichloro-phenyl)-3-(3-phenyl-propyl)-3H-imidazol-4-yl]-ethylamine]
11 | 35.2 | CC(N)c1c(-c2ccc(Cl)cc2Cl)ncn1CCC1=CCCCC1 (stereo not drawn) [71b, 1-[3-(2-Cyclohex-1-enyl-ethyl)-5-(2,4-dichloro-phenyl)-3H-imidazol-4-yl]-ethylamine]
12 | 20.8 | CC(O)Cn1cnc(-c2ccc(Cl)cc2Cl)c1CN (stereo not drawn) [72b, 1-[5-Aminomethyl-4-(2,4-dichloro-phenyl)-imidazol-1-yl]-propan-2-ol]
13 | 38.8 | CC(N)c1c(-c2ccc(Cl)cc2Cl)ncn1CCc1ccccn1 (stereo not drawn) [73b, 1-[5-(2,4-Dichloro-phenyl)-3-(2-pyridin-2-yl-ethyl)-3H-imidazol-4-yl]-ethylamine]
14 | 12.7 | NCCCc1c(-c2ccc(Cl)cc2Cl)ncn1CCNc1ccc([N+](=O)[O-])cn1 [74b, {2-[5-(3-Amino-propyl)-4-(2,4-dichloro-phenyl)-imidazol-1-yl]-ethyl}-(5-nitro-pyridin-2-yl)-amine]
15 | 23.5 | NCc1c(-c2ccc(Cl)cc2Cl)ncn1Cc1ccc(-c2ccccc2)cc1 [75b, C-[3-Biphenyl-4-ylmethyl-5-(2,4-dichloro-phenyl)-3H-imidazol-4-yl]-methylamine]
16 | 10 | COc1cccc(Cn2cnc(-c3ccc(Cl)cc3Cl)c2C(C)N)c1 (stereo not drawn) [76b, 1-[5-(2,4-Dichloro-phenyl)-3-(3-methoxy-benzyl)-3H-imidazol-4-yl]-ethylamine]
17 | 7.3 | NCc1c(-c2ccc(Cl)cc2Cl)ncn1Cc1ccc(Cl)c(Cl)c1 [77b, C-[3-(3,4-Dichloro-benzyl)-5-(2,4-dichloro-phenyl)-3H-imidazol-4-yl]-methylamine]
18 | 28 | CC(N)c1c(-c2ccc(Cl)cc2Cl)ncn1Cc1cccnc1 (stereo not drawn) [78b, 1-[5-(2,4-Dichloro-phenyl)-3-pyridin-3-ylmethyl-3H-imidazol-4-yl]-ethylamine]
19 | 16.3 | NCCc1c(-c2ccc(Cl)cc2Cl)ncn1CCNc1ccc([N+](=O)[O-])cn1 [79b, {2-[5-(2-Amino-ethyl)-4-(2,4-dichloro-phenyl)-imidazol-1-yl]-ethyl}-(5-nitro-pyridin-2-yl)-amine]
20 | 2.8 | COc1ccccc1Cn1cnc(-c2ccc(Cl)cc2Cl)c1C(C)N (stereo not drawn) [80b, 1-[5-(2,4-Dichloro-phenyl)-3-(2-methoxy-benzyl)-3H-imidazol-4-yl]-ethylamine]

Row | IC50 [µM] | Structure (SMILES)
21 | 15.4 | NCc1c(-c2ccc(Cl)cc2Cl)ncn1Cc1ccc(Cl)cc1 [82b, C-[3-(4-Chloro-benzyl)-5-(2,4-dichloro-phenyl)-3H-imidazol-4-yl]-methylamine]
22 | 5.5 | NCc1c(-c2ccc(Cl)cc2Cl)ncn1CCc1ccccc1F [83b, C-{5-(2,4-Dichloro-phenyl)-3-[2-(2-fluoro-phenyl)-ethyl]-3H-imidazol-4-yl}-methylamine]
23 | 1 | CCCCCCn1cnc(-c2ccc(Cl)cc2Cl)c1CN [84b, C-[5-(2,4-Dichloro-phenyl)-3-hexyl-3H-imidazol-4-yl]-methylamine]
24 | 24.4 | NCc1c(-c2ccc(Cl)cc2Cl)ncn1CCc1ccccn1 [85b, C-[5-(2,4-Dichloro-phenyl)-3-(2-pyridin-2-yl-ethyl)-3H-imidazol-4-yl]-methylamine]
25 | 17.2 | CCCn1cnc(-c2ccc(Cl)cc2Cl)c1CN [86b, C-[5-(2,4-Dichloro-phenyl)-3-propyl-3H-imidazol-4-yl]-methylamine]
26 | 8.2 | Cc1[nH]ncc1CCCn1cnc(-c2ccc(Cl)cc2Cl)c1CN [87b, C-{5-(2,4-Dichloro-phenyl)-3-[3-(5-methyl-1H-pyrazol-4-yl)-propyl]-3H-imidazol-4-yl}-methylamine]
27 | 28 | C[C@H](N)c1c(-c2ccc(Cl)cc2Cl)ncn1CCC(c1ccccc1)c1ccccc1 [88b, (S)-1-[5-(2,4-Dichloro-phenyl)-3-(3,3-diphenyl-propyl)-3H-imidazol-4-yl]-ethylamine]
28 | 1.9 | NCc1c(-c2ccc(Cl)cc2Cl)ncn1Cc1cccc(C(F)(F)F)c1 [89b, C-[5-(2,4-Dichloro-phenyl)-3-(3-trifluoromethyl-benzyl)-3H-imidazol-4-yl]-methylamine]
29 | 14.5 | NCCCc1c(-c2ccc(Cl)cc2Cl)ncn1CCc1ccccc1Cl [90b, 3-[3-[2-(2-Chloro-phenyl)-ethyl]-5-(2,4-dichloro-phenyl)-3H-imidazol-4-yl]-propylamine]
30 | 12.7 | NCc1c(-c2ccc(Cl)cc2Cl)ncn1CCCc1ccccc1 [91b, C-[5-(2,4-Dichloro-phenyl)-3-(3-phenyl-propyl)-3H-imidazol-4-yl]-methylamine]
31 | 35.2 | NCc1c(-c2ccc(Cl)cc2Cl)ncn1Cc1ccc(Cl)cc1Cl [93b, C-[3-(2,4-Dichloro-benzyl)-5-(2,4-dichloro-phenyl)-3H-imidazol-4-yl]-methylamine]
32 | 8.2 | NCc1c(-c2ccc(Cl)cc2Cl)ncn1Cc1ccncc1 [94b, C-[5-(2,4-Dichloro-phenyl)-3-pyridin-4-ylmethyl-3H-imidazol-4-yl]-methylamine]
33 | 19.9 | COc1ccc(Cn2cnc(-c3ccc(Cl)cc3Cl)c2C(C)N)cc1OC (stereo not drawn) [95b, 1-[5-(2,4-Dichloro-phenyl)-3-(3,4-dimethoxy-benzyl)-3H-imidazol-4-yl]-ethylamine]
34 | 14.5 | CC(N)c1c(-c2ccc(Cl)cc2Cl)ncn1Cc1ccccn1 (stereo not drawn) [96b, 1-[5-(2,4-Dichloro-phenyl)-3-pyridin-2-ylmethyl-3H-imidazol-4-yl]-ethylamine]
35 | 2.8 | NCc1c(-c2ccc(Cl)cc2Cl)ncn1Cc1ccc(OC(F)(F)F)cc1 [97b, C-[5-(2,4-Dichloro-phenyl)-3-(4-trifluoromethoxy-benzyl)-3H-imidazol-4-yl]-methylamine]
36 | 27.1 | NCc1c(-c2ccc(Cl)cc2Cl)ncn1Cc1ccc(C(F)(F)F)cc1 [98b, C-[5-(2,4-Dichloro-phenyl)-3-(4-trifluoromethyl-benzyl)-3H-imidazol-4-yl]-methylamine]
37 | 4.6 | CC(C)CCCCCCn1cnc(-c2ccc(Cl)cc2Cl)c1CN [99b, C-[5-(2,4-Dichloro-phenyl)-3-(7-methyl-octyl)-3H-imidazol-4-yl]-methylamine]
38 | 34.3 | NCc1c(-c2ccc(Cl)cc2Cl)ncn1CCOc1ccccc1 [100b, C-[5-(2,4-Dichloro-phenyl)-3-(2-phenoxy-ethyl)-3H-imidazol-4-yl]-methylamine]
39 | 47.8 | C[C@H](N)c1c(-c2ccc(Cl)cc2Cl)ncn1CCc1c[nH]c2cc(Cl)ccc12 [101b, (S)-1-[3-[2-(6-Chloro-1H-indol-3-yl)-ethyl]-5-(2,4-dichloro-phenyl)-3H-imidazol-4-yl]-ethylamine]
